Assay results reported in publication PMC10882719 (Frontiers in Neuroscience, 2024).
Read-outs that look alike come from different tables or passages of the source.

Columns and labels:
Format in all cases: cell-based
168 GPCRs [1] = molecular target: T1, 168 GPCRs (Homo sapiens, UniProt P18089); settings: ADRA2B
T1 construct: host or cells: PathHunter cell lines
T1 sequence (P18089 1-450): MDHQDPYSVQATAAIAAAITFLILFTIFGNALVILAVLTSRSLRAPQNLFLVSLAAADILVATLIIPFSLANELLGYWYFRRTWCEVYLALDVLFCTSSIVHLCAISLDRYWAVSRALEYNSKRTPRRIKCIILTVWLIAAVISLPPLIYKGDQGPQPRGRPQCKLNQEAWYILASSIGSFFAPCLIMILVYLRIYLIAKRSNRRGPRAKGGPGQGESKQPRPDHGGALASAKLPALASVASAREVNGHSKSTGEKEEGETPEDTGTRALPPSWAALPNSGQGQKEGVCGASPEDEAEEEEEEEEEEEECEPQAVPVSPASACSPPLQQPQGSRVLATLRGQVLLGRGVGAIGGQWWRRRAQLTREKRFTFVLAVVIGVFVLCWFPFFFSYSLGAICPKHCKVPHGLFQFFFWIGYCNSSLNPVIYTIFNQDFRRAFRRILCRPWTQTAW

168 GPCRs [2] = molecular target: T2, 168 GPCRs (Homo sapiens, UniProt P47900); settings: P2RY1
T2 construct: host or cells: PathHunter cell lines
T2 sequence (P47900 whole entry): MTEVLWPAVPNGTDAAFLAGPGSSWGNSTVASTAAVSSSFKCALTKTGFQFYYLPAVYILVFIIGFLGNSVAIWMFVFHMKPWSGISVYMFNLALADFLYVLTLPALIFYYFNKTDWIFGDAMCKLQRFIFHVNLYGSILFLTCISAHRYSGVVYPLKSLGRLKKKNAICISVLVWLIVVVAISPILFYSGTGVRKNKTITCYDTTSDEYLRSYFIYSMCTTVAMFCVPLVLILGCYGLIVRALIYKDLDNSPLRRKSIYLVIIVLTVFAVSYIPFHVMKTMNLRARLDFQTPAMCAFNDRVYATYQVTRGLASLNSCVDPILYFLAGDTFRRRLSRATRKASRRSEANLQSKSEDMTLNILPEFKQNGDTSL

168 GPCRs [3] = molecular target: T3, 168 GPCRs (Homo sapiens, UniProt Q9HBW0)
T3 construct: host or cells: PathHunter cell lines
T3 sequence (Q9HBW0 whole entry): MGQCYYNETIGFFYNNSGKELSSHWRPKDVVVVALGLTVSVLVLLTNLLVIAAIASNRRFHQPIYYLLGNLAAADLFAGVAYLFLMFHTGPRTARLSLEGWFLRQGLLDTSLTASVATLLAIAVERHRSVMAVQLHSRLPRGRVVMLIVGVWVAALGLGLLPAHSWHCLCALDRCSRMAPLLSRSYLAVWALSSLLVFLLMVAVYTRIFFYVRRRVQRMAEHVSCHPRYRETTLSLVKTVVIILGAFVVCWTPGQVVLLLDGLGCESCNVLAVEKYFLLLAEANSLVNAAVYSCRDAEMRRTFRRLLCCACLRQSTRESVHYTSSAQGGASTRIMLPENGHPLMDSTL

168 GPCRs [4] = molecular target: T4, 168 GPCRs (Homo sapiens, UniProt O43603)
T4 construct: host or cells: PathHunter cell lines
T4 sequence (O43603 1-387): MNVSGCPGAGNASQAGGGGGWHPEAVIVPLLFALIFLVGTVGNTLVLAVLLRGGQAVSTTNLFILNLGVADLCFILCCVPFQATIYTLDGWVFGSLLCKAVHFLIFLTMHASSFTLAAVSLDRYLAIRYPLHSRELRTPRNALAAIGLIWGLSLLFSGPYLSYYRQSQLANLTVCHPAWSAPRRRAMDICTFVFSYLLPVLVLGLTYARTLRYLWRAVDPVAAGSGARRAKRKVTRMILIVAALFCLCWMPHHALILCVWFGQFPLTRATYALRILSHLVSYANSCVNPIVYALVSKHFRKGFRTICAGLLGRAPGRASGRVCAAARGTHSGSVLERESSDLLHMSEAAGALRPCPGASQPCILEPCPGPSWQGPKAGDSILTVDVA

168 GPCRs [5] = molecular target: T5, 168 GPCRs (Homo sapiens, UniProt P07550)
T5 construct: host or cells: PathHunter cell lines
T5 sequence (P07550 whole entry): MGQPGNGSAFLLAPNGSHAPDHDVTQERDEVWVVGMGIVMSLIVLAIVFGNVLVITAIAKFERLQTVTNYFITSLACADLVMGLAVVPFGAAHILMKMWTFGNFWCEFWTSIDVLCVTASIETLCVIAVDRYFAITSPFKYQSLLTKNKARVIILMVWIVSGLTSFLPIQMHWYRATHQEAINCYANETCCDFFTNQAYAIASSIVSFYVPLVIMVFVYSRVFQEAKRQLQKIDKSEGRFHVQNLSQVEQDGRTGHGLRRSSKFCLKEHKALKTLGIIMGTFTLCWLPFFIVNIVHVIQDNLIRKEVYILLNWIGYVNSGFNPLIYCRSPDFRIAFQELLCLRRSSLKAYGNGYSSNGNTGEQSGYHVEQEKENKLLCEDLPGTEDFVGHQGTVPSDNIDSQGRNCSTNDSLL

168 GPCRs [6] = molecular target: T6, 168 GPCRs (Homo sapiens, UniProt P49146); settings: NPY2R
T6 construct: host or cells: PathHunter cell lines
T6 sequence (P49146 1-381): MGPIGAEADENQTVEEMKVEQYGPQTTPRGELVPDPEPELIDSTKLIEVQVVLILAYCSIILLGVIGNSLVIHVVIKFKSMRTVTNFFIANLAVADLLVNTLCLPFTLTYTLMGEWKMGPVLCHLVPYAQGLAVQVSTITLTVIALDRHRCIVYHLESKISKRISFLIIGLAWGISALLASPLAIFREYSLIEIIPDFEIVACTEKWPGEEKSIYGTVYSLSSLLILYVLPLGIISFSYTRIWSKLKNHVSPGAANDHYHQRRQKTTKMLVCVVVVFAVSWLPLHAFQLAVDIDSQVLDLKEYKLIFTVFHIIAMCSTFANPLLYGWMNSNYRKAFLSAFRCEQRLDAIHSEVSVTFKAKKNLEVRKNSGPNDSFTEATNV

168 GPCRs [7] = molecular target: T7, 168 GPCRs (Homo sapiens, UniProt P29371); settings: TACR3
T7 construct: host or cells: PathHunter cell lines
T7 sequence (P29371 1-465): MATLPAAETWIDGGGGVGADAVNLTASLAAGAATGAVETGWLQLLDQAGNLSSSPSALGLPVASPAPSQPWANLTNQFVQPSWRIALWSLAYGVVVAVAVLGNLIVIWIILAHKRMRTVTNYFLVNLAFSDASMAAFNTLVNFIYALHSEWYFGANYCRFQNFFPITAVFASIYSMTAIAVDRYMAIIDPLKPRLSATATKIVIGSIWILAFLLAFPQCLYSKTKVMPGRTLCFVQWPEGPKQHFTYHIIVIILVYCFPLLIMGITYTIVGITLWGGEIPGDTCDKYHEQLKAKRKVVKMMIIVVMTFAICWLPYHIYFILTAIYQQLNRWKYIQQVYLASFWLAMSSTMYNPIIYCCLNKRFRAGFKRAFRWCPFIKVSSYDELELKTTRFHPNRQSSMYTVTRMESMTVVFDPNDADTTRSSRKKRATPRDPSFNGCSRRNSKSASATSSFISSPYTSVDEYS

| Compound | % Agonist Activity (168 GPCRs [1]; 1 uM) | % Antagonist Activity (168 GPCRs [1]; 1 uM) | % Agonist Activity (168 GPCRs [1]; 10 uM) | % Antagonist Activity (168 GPCRs [1]; 10 uM) | % Agonist Activity (168 GPCRs [2]; Conc 1 uM) | % Antagonist Activity (168 GPCRs [2]; Conc 1 uM) | % Agonist Activity (168 GPCRs [2]; Conc 10 uM) | % Antagonist Activity (168 GPCRs [2]; Conc 10 uM) | % Agonist Activity (168 GPCRs [3]; EDG4, 1 uM) | % Antagonist Activity (168 GPCRs [3]; EDG4, 1 uM) | % Agonist Activity (168 GPCRs [3]; EDG4, 10 uM) | % Antagonist Activity (168 GPCRs [3]; EDG4, 10 uM) | % Agonist Activity (168 GPCRs [4]; GALR2, 1 uM) | % Antagonist Activity (168 GPCRs [4]; GALR2, 1 uM) | % Agonist Activity (168 GPCRs [4]; GALR2, 10 uM) | % Antagonist Activity (168 GPCRs [4]; GALR2, 10 uM) | % Agonist Activity (168 GPCRs [5]; ADRB2, 1 uM) | % Antagonist Activity (168 GPCRs [5]; ADRB2, 1 uM) | % Agonist Activity (168 GPCRs [5]; ADRB2, 10 uM) | % Antagonist Activity (168 GPCRs [5]; ADRB2, 10 uM) | other results |
| --- | --- | --- | --- | --- | --- | --- | --- | --- | --- | --- | --- | --- | --- | --- | --- | --- | --- | --- | --- | --- | --- |
| CNC(C)Cc1ccc2c(c1)OCO2 (centres unmarked) [MDMA, 3,4-Methylenedioxy methamphetamine, reference compound] | 5.2% | 12.8% | 1.3% | 2.9% | 0.3% | 2.8% | -0.8% | 1.2% | 1.5% | 7.5% | 2.2% | 10.2% | -2.9% | -5.1% | -3% | -7.3% | 2% | 31.9% | 1.5% | 45.7% | % Agonist Activity (168 GPCRs [6]; Conc 1 uM): -0.1%; % Antagonist Activity (168 GPCRs [6]; Conc 1 uM): 12%; % Agonist Activity (168 GPCRs [6]; Conc 10 uM): 0.2%; % Antagonist Activity (168 GPCRs [6]; Conc 10 uM): 4.8%; % Agonist Activity (168 GPCRs [7]; Conc 1 uM): 0.1%; % Antagonist Activity (168 GPCRs [7]; Conc 1 uM): 14.6%; % Agonist Activity (168 GPCRs [7]; Conc 10 uM): 1%; % Antagonist Activity (168 GPCRs [7]; Conc 10 uM): 19.1% |
| CNC(C)C(=O)c1ccc2c(c1)OCO2 (centres unmarked) [methylone] | -1% | 8.5% | 1.3% | 6.3% | 2.2% | 14.5% | -4.1% | 14.9% | -2.2% | -10.2% | -2.1% | -21% | 3.4% | 7% | 1.9% | 1.5% | 0% | 18.1% | -0.2% | 20.4% | % Agonist Activity (168 GPCRs [6]; Conc 1 uM): -0.1%; % Antagonist Activity (168 GPCRs [6]; Conc 1 uM): 2.3%; % Agonist Activity (168 GPCRs [6]; Conc 10 uM): 0.2%; % Antagonist Activity (168 GPCRs [6]; Conc 10 uM): 2%; % Agonist Activity (168 GPCRs [7]; Conc 1 uM): 0.8%; % Antagonist Activity (168 GPCRs [7]; Conc 1 uM): -3.9%; % Agonist Activity (168 GPCRs [7]; Conc 10 uM): 1.1%; % Antagonist Activity (168 GPCRs [7]; Conc 10 uM): -14.3% |
